Toxic doses and inconclusive results are not listed. Rule as the data show it: active = T/C of 150% or more; inactive = T/C below 125%. Peptide text beside a SMILES is read from it. * marks the point of attachment. Cbz = O=C(OCc1ccccc1)*
Test system: L1210 leukemia ip in BDF1 mice, survival T/C
Experiment: NCI In Vivo Anticancer Drug Screen. Data for tumor model L1210 Leukemia (intraperitoneal) in B6D2F1 (BDF1) mice
Conditions: endpoint: mean survival time, higher = longer survival
How it was run: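 Antitumor effect is assessed in tumor-bearing animals. Survival in the compound arm is compared with a vehicle-dosed control arm and expressed as their quotient.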

[1] = dose: 100.0 mg/kg/injection, schedule: Q04DX003 (ip), vehicle: Klucel (hydroxypropylcellulose) (HPC)
[2] = dose: 200.0 mg/kg/injection, schedule: Q04DX003 (ip), vehicle: Klucel (hydroxypropylcellulose) (HPC)
[3] = dose: 400.0 mg/kg/injection, schedule: Q04DX003 (ip), vehicle: Klucel (hydroxypropylcellulose) (HPC)
[4] = dose: 100.0 mg/kg/injection, schedule: Q04DX003 (ip), vehicle: saline
[5] = dose: 100.0 mg/kg/injection, schedule: Q01DX001 (ip), vehicle: saline
[6] = dose: 200.0 mg/kg/injection, schedule: Q01DX001 (ip), vehicle: saline
[7] = dose: 400.0 mg/kg/injection, schedule: Q01DX001 (ip), vehicle: saline
[8] = dose: 100.0 mg/kg/injection, schedule: Q01DX001 (ip), vehicle: other
[9] = dose: 100.0 mg/kg/injection, schedule: Q01DX009 (ip), vehicle: saline with Tween-80
[10] = dose: 200.0 mg/kg/injection, schedule: Q01DX001 (ip), vehicle: other
[11] = dose: 200.0 mg/kg/injection, schedule: Q01DX009 (ip), vehicle: saline with Tween-80
[12] = dose: 400.0 mg/kg/injection, schedule: Q01DX001 (ip), vehicle: other
[13] = dose: 400.0 mg/kg/injection, schedule: Q01DX009 (ip), vehicle: saline with Tween-80
[14] = dose: 200.0 mg/kg/injection, schedule: Q04DX003 (ip), vehicle: saline
[15] = dose: 100.0 mg/kg/injection, schedule: Q01DX001 (ip), vehicle: carboxymethylcellulose (CMC)
[16] = dose: 200.0 mg/kg/injection, schedule: Q01DX001 (ip), vehicle: carboxymethylcellulose (CMC)
[17] = dose: 400.0 mg/kg/injection, schedule: Q01DX001 (ip), vehicle: carboxymethylcellulose (CMC)
[18] = dose: 100.0 mg/kg/injection, schedule: Q01DX009 (ip), vehicle: Klucel (hydroxypropylcellulose) (HPC)
[19] = dose: 200.0 mg/kg/injection, schedule: Q01DX009 (ip), vehicle: Klucel (hydroxypropylcellulose) (HPC)
[20] = dose: 100.0 mg/kg/injection, schedule: Q01DX009 (ip), vehicle: saline

Measured: T/C

Fc1ccccc1NC1=NCCO1
inactive: [1] 101 % of control | [2] 95 % of control | [3] 92 % of control

CCOC(=O)c1ccc(N2C(N)=NC(N)=NC2(C)C)cc1
inactive: [4] 101 % of control

COc1ccc(S(=O)(=O)O)cc1NC(=O)CC(=O)c1cccc([N+](=O)[O-])c1
inactive: [5] 97 % of control | [6] 95 % of control | [7] 100 % of control

CCOc1cc(C#N)c(OCC)cc1N
inactive: [5] 103 % of control | [6] 101 % of control

Cc1cc(Nc2ccc(N=Nc3ccc(O)c4ncccc34)cc2)nc(C)n1
inactive: [5] 102 % of control | [6] 105 % of control | [7] 103 % of control

O=C(NO)N/N=C/c1ccccc1
inactive: [8] 104 % of control | [9] 104 % of control | dose: 100.0 mg/kg/injection, schedule: Q04DX003 (ip), vehicle: other 113 % of control | [10] 98 % of control | [11] 107 % of control | dose: 200.0 mg/kg/injection, schedule: Q04DX003 (ip), vehicle: other 95 % of control | [12] 98 % of control | [13] 110 % of control | dose: 400.0 mg/kg/injection, schedule: Q04DX003 (ip), vehicle: other 93 % of control

Cc1ccc2nc(CCl)[nH]c2c1
inactive: dose: 50.0 mg/kg/injection, schedule: Q01DX001 (ip), vehicle: saline 119 % of control | [5] 113 % of control | [6] 107 % of control

CN(C)Cc1cc(Cl)cc(CN(C)C)c1O
inactive: dose: 100.0 mg/kg/injection, schedule: Q04DX002 (ip), vehicle: saline with Tween-80 104 % of control | [4] 99 % of control | [14] 104 % of control

CC(C)(C)N=C1OC(=O)c2ccccc21
inactive: [9] 107 % of control | [11] 98 % of control | [13] 94 % of control

Cc1c(Cl)c(N(C)S(=O)(=O)c2ccccc2)c(C)c(Cl)c1N(C)S(=O)(=O)c1ccccc1
inactive: [1] 103 % of control | [2] 96 % of control | [3] 95 % of control

CC(=N\O)/C(=N/O)c1ccc(O)cc1
inactive: dose: 5.0 mg/kg/injection, schedule: Q01DX001 (ip), vehicle: saline 97 % of control | dose: 10.0 mg/kg/injection, schedule: Q01DX001 (ip), vehicle: saline 100 % of control | dose: 20.0 mg/kg/injection, schedule: Q01DX001 (ip), vehicle: saline 97 % of control

CC(C)(C)OC(=O)N1CCCC1C(=O)O (stereo not drawn)
inactive: [15] 109 % of control | [16] 104 % of control | [17] 95 % of control

CC1OC(=O)N(CCc2ccncc2)C1=O (stereo not drawn)
inactive: dose: 100.0 mg/kg/injection, schedule: Q04DX002 (ip), vehicle: saline 93 % of control | dose: 200.0 mg/kg/injection, schedule: Q04DX002 (ip), vehicle: saline 93 % of control | dose: 400.0 mg/kg/injection, schedule: Q04DX002 (ip), vehicle: saline 97 % of control

CN(Cc1ccccc1)C(=O)c1ccc(C(=O)N(C)Cc2ccccc2)cc1
inactive: [18] 97 % of control | [19] 108 % of control | dose: 400.0 mg/kg/injection, schedule: Q01DX009 (ip), vehicle: Klucel (hydroxypropylcellulose) (HPC) 102 % of control

Cc1ccc(C(C)C)cc1NC(=O)NCCCl
inactive: dose: 20.0 mg/kg/injection, schedule: Q04DX003 (ip), vehicle: Klucel (hydroxypropylcellulose) (HPC) 94 % of control | dose: 40.0 mg/kg/injection, schedule: Q04DX003 (ip), vehicle: Klucel (hydroxypropylcellulose) (HPC) 97 % of control | dose: 80.0 mg/kg/injection, schedule: Q04DX003 (ip), vehicle: Klucel (hydroxypropylcellulose) (HPC) 102 % of control | [1] 112 % of control | [2] 112 % of control

CNC(=S)N(C)C
inactive: dose: 100.0 mg/kg/injection, schedule: Q04DX003 (ip), vehicle: saline sonified 114 % of control | dose: 200.0 mg/kg/injection, schedule: Q04DX003 (ip), vehicle: saline sonified 103 % of control | dose: 400.0 mg/kg/injection, schedule: Q04DX003 (ip), vehicle: saline sonified 103 % of control

COC(=O)C(CC(C)C)NC(=O)C(Cc1ccccc1)NC(=O)OCc1ccccc1 (stereo not drawn) (Cbz-Phe-Leu-OMe; configuration not given here)
inactive: [5] 98 % of control | [6] 93 % of control | [7] 91 % of control

O=C(Nc1cccc(C(F)(F)F)c1)Oc1ccccc1F
inactive: [18] 91 % of control | [19] 92 % of control

COc1cc(NS(C)(=O)=O)ccc1N
inactive: [20] 103 % of control | [4] 107 % of control | dose: 200.0 mg/kg/injection, schedule: Q01DX009 (ip), vehicle: saline 98 % of control | [14] 103 % of control | dose: 400.0 mg/kg/injection, schedule: Q04DX003 (ip), vehicle: saline 102 % of control

O=C(c1ccccc1)c1ccccc1O
inactive: dose: 50.0 mg/kg/injection, schedule: Q01DX001 (ip), vehicle: other 90 % of control | [8] 93 % of control | [10] 101 % of control | [12] 95 % of control

Clc1nc(I)c(Cl)c(I)n1
inactive: dose: 6.25 mg/kg/injection, schedule: Q01DX009 (ip), vehicle: other 119 % of control | dose: 12.5 mg/kg/injection, schedule: Q01DX009 (ip), vehicle: other 101 % of control | dose: 25.0 mg/kg/injection, schedule: Q01DX009 (ip), vehicle: other 94 % of control

CC(=O)N(C)N
inactive: dose: 12.5 mg/kg/injection, schedule: Q01DX009 (ip), vehicle: saline 98 % of control | dose: 12.5 mg/kg/injection, schedule: Q04DX003 (ip), vehicle: saline 112 % of control | dose: 25.0 mg/kg/injection, schedule: Q01DX009 (ip), vehicle: saline 103 % of control | dose: 25.0 mg/kg/injection, schedule: Q04DX003 (ip), vehicle: saline 106 % of control | dose: 50.0 mg/kg/injection, schedule: Q01DX009 (ip), vehicle: saline 104 % of control | dose: 50.0 mg/kg/injection, schedule: Q04DX003 (ip), vehicle: saline 106 % of control | [20] 117 % of control | [4] 108 % of control | [14] 105 % of control

O=C(Nc1ccc(F)c(Cl)c1)OCC1CCCO1 (stereo not drawn)
inactive: dose: 6.25 mg/kg/injection, schedule: Q01DX009 (ip), vehicle: Klucel (hydroxypropylcellulose) (HPC) 92 % of control | dose: 12.5 mg/kg/injection, schedule: Q01DX009 (ip), vehicle: Klucel (hydroxypropylcellulose) (HPC) 89 % of control | [1] 94 % of control | [2] 89 % of control

CC(C)(Cl)CCC1=C(Cl)C(=O)c2ccccc2C1=O
inactive: dose: 5.0 mg/kg/injection, schedule: Q01DX001 (ip), vehicle: water 98 % of control | dose: 10.0 mg/kg/injection, schedule: Q01DX001 (ip), vehicle: water 98 % of control

CC(=O)Nc1cc(F)cc(F)c1Br
inactive: [15] 105 % of control | [16] 102 % of control | [17] 112 % of control

CCCCNS(=O)(=O)c1ccc(Cl)c([N+](=O)[O-])c1
inactive: dose: 12.5 mg/kg/injection, schedule: Q04DX003 (ip), vehicle: Klucel (hydroxypropylcellulose) (HPC) 95 % of control | dose: 25.0 mg/kg/injection, schedule: Q04DX003 (ip), vehicle: Klucel (hydroxypropylcellulose) (HPC) 103 % of control | dose: 50.0 mg/kg/injection, schedule: Q04DX003 (ip), vehicle: Klucel (hydroxypropylcellulose) (HPC) 100 % of control | dose: 100.0 mg/kg/injection, schedule: Q04DX003 (ip), vehicle: gum acacia 103 % of control | dose: 200.0 mg/kg/injection, schedule: Q04DX003 (ip), vehicle: gum acacia 105 % of control

From PubChem BioAssay AID248 (DTP/NCI, 2004)
